Laboratory results taken from ChEMBL document CHEMBL6120978, “Anticancer activity of salinomycin quaternary phosphonium salts” (Eur J Med Chem, 2025).
Values after ≈ are worked out from the molar mass of the structure shown.

What was measured:
SW480 = assay: Cytotoxicity against human SW480 cells incubated for 72 hrs by MTT assay; format: functional, cell-based; conditions: SW480, 72 h
SW-620 = assay: Cytotoxicity against human SW620 cells incubated for 72 hrs by MTT assay; format: functional, cell-based; conditions: SW-620, 72 h
PC-3 = assay: Cytotoxicity against human PC-3 cells incubated for 72 hrs by MTT assay; format: functional, cell-based; conditions: PC-3, 72 h
MDA-MB-231 = assay: Cytotoxicity against human MDA-MB-231 cells incubated for 72 hrs by MTT assay; format: functional, cell-based; conditions: MDA-MB-231, 72 h
A549 = assay: Cytotoxicity against human A549 cells incubated for 72 hrs by MTT assay; format: functional, cell-based; conditions: A549, 72 h
[1] = Cytotoxicity against human HaCaT cells incubated for 72 hrs by MTT assay; format: toxicity, cell-based
[2] = Cytotoxicity against chinese hamster V79 cells incubated for 72 hrs by MTT assay; format: toxicity, cell-based, Cricetulus griseus
[3] = Selectivity index, ratio of IC50 for cytotoxicity against human HaCaT cells to IC50 for cytotoxicity against human SW480 cells; format: toxicity, cell-based; conditions: HaCaT cells versus SW480 cells, read-out: Ratio IC50
[4] = Selectivity index, ratio of IC50 for cytotoxicity against human HaCaT cells to IC50 for cytotoxicity against human SW620 cells; format: toxicity, cell-based; conditions: HaCaT cells versus SW620 cells, read-out: Ratio IC50
[5] = Selectivity index, ratio of IC50 for cytotoxicity against human HaCaT cells to IC50 for cytotoxicity against human PC-3 cells; format: toxicity, cell-based; conditions: HaCaT cells versus PC-3 cells, read-out: Ratio IC50
[6] = Selectivity index, ratio of IC50 for cytotoxicity against human HaCaT cells to IC50 for cytotoxicity against human MDA-MB-231 cells; format: toxicity, cell-based; conditions: HaCaT cells versus MDA-MB-231 cells, read-out: Ratio IC50
[7] = Selectivity index, ratio of IC50 for cytotoxicity against human HaCaT cells to IC50 for cytotoxicity against human A549 cells; format: toxicity, cell-based; conditions: HaCaT cells versus A549 cells, read-out: Ratio IC50
[8] = Selectivity index, ratio of IC50 for cytotoxicity against chinese hamster V79 cells to IC50 for cytotoxicity against human SW480 cells; format: toxicity, cell-based; conditions: V79 cells versus SW480 cells, read-out: Ratio IC50
[9] = Selectivity index, ratio of IC50 for cytotoxicity against chinese hamster V79 cells to IC50 for cytotoxicity against human SW620 cells; format: toxicity, cell-based; conditions: V79 cells versus SW620 cells, read-out: Ratio IC50
[10] = Selectivity index, ratio of IC50 for cytotoxicity against chinese hamster V79 cells to IC50 for cytotoxicity against human PC-3 cells; format: toxicity, cell-based; conditions: V79 cells versus PC-3 cells, read-out: Ratio IC50
[11] = Selectivity index, ratio of IC50 for cytotoxicity against chinese hamster V79 cells to IC50 for cytotoxicity against human MDA-MB-231 cells; format: toxicity, cell-based; conditions: V79 cells versus MDA-MB-231 cells, read-out: Ratio IC50
[12] = Selectivity index, ratio of IC50 for cytotoxicity against chinese hamster V79 cells to IC50 for cytotoxicity against human A549 cells; format: toxicity, cell-based; conditions: V79 cells versus A549 cells, read-out: Ratio IC50
Staphylococcus aureus [13] = assay: Antimicrobial activity against Staphylococcus aureus NCTC 4163 incubated for 18 hrs by twofold microdilution method; format: functional
Staphylococcus aureus [14] = assay: Antimicrobial activity against Staphylococcus aureus ATCC 25923 incubated for 18 hrs by twofold microdilution method; format: functional
Staphylococcus aureus [15] = assay: Antimicrobial activity against Staphylococcus aureus ATCC 6538 incubated for 18 hrs by twofold microdilution method; format: functional
Staphylococcus aureus [16] = assay: Antimicrobial activity against Staphylococcus aureus ATCC 29213 incubated for 18 hrs by twofold microdilution method; format: functional
[17] = test system: Staphylococcus epidermidis; assay: Antimicrobial activity against Staphylococcus epidermidis ATCC 12228 incubated for 18 hrs by twofold microdilution method; format: functional
[18] = test system: Staphylococcus epidermidis; assay: Antimicrobial activity against Staphylococcus epidermidis ATCC 35984 incubated for 18 hrs by twofold microdilution method; format: functional
Escherichia coli = assay: Antimicrobial activity against Escherichia coli ATCC 25922 incubated for 18 hrs by twofold microdilution method; format: functional
Pseudomonas aeruginosa = assay: Antimicrobial activity against Pseudomonas aeruginosa ATCC 15442 incubated for 18 hrs by twofold microdilution method; format: functional

MIC (Staphylococcus aureus [14]) [µg/mL]	MIC (Staphylococcus aureus [16]) [µg/mL]	MIC [17] [µg/mL]	MIC [18] [µg/mL]	MIC (Escherichia coli) [µg/mL]	Structure (SMILES)	IC50 (SW480) [nM]	IC50 (SW-620) [nM]	IC50 (PC-3) [nM]	IC50 (MDA-MB-231) [nM]	IC50 (A549) [nM]	IC50 at 72 h [1] [nM]	IC50 at 72 h [2] [nM]	selectivity ratio [3]	selectivity ratio [4]	selectivity ratio [5]	selectivity ratio [6]	selectivity ratio [7]	selectivity ratio [8]	selectivity ratio [9]	selectivity ratio [10]	further results
16	8	16	16	> 256	CC[C@@H](C(=O)[C@@H](C)[C@@H](O)[C@H](C)[C@@H]1O[C@@H]([C@@H](CC)C(=O)OCCCCCC[P+](c2ccc(C)cc2)(c2ccc(C)cc2)c2ccc(C)cc2)CC[C@@H]1C)[C@H]1O[C@]2(C=C[C@@H](O)[C@]3(CC[C@@](C)([C@H]4CC[C@](O)(CC)[C@H](C)O4)O3)O2)[C@H](C)C[C@@H]1C.[Br-]	610	720	1580	830	980	1050	670	1.7	1.5	0.7	1.3	1.1	1.1	0.9	0.4	selectivity ratio [11]: 0.8; selectivity ratio [12]: 0.7; MIC (Staphylococcus aureus [13]): 8 µg/mL; MIC (Staphylococcus aureus [15]): 8 µg/mL; MIC (Pseudomonas aeruginosa): > 256 µg/mL
2	2	2	2	256	CC[C@@H](C(=O)[C@@H](C)[C@@H](O)[C@H](C)[C@@H]1O[C@@H]([C@@H](CC)C(=O)OCCCC[P+](c2ccccc2OC)(c2ccccc2OC)c2ccccc2OC)CC[C@@H]1C)[C@H]1O[C@]2(C=C[C@@H](O)[C@]3(CC[C@@](C)([C@H]4CC[C@](O)(CC)[C@H](C)O4)O3)O2)[C@H](C)C[C@@H]1C.[Br-]	560	1250	880	740	700	940	640	1.7	0.8	1.1	1.3	1.3	1.1	0.5	0.7	selectivity ratio [11]: 0.9; selectivity ratio [12]: 0.9; MIC (Staphylococcus aureus [13]): 2 µg/mL; MIC (Staphylococcus aureus [15]): 2 µg/mL; MIC (Pseudomonas aeruginosa): 256 µg/mL
2	2	2	2	256	CC[C@@H](C(=O)[C@@H](C)[C@@H](O)[C@H](C)[C@@H]1O[C@@H]([C@@H](CC)C(=O)OCCCCCC[P+](c2ccccc2)(c2ccccc2)c2ccccc2)CC[C@@H]1C)[C@H]1O[C@]2(C=C[C@@H](O)[C@]3(CC[C@@](C)([C@H]4CC[C@](O)(CC)[C@H](C)O4)O3)O2)[C@H](C)C[C@@H]1C.[Br-]	710	2570	1850	2650	720	780	630	1.1	0.3	0.4	0.3	1.1	0.9	0.2	0.3	selectivity ratio [11]: 0.2; selectivity ratio [12]: 0.9; MIC (Staphylococcus aureus [13]): 2 µg/mL; MIC (Staphylococcus aureus [15]): 2 µg/mL; MIC (Pseudomonas aeruginosa): 256 µg/mL
2	2	2	2	> 256	CCCC[P+](CCCC)(CCCC)CCCCCCOC(=O)[C@H](CC)[C@H]1CC[C@H](C)[C@H]([C@@H](C)[C@H](O)[C@H](C)C(=O)[C@H](CC)[C@H]2O[C@]3(C=C[C@@H](O)[C@]4(CC[C@@](C)([C@H]5CC[C@](O)(CC)[C@H](C)O5)O4)O3)[C@H](C)C[C@@H]2C)O1.[Br-]	500	670	2890	1020	1050	620	650	1.2	0.9	0.2	0.6	0.6	1.3	1	0.2	selectivity ratio [11]: 0.6; selectivity ratio [12]: 0.6; MIC (Staphylococcus aureus [13]): 2 µg/mL; MIC (Staphylococcus aureus [15]): 2 µg/mL; MIC (Pseudomonas aeruginosa): > 256 µg/mL
8	8	8	8	> 256	CC[C@@H](C(=O)[C@@H](C)[C@@H](O)[C@H](C)[C@@H]1O[C@@H]([C@@H](CC)C(=O)OCCCCCC[P+](c2ccccc2)(c2ccccc2)c2ccc(N(C)C)cc2)CC[C@@H]1C)[C@H]1O[C@]2(C=C[C@@H](O)[C@]3(CC[C@@](C)([C@H]4CC[C@](O)(CC)[C@H](C)O4)O3)O2)[C@H](C)C[C@@H]1C.[Br-]	580	710	1470	880	850	710	600	1.2	1	0.5	0.8	0.8	1	0.8	0.4	selectivity ratio [11]: 0.7; selectivity ratio [12]: 0.7; MIC (Staphylococcus aureus [13]): 8 µg/mL; MIC (Staphylococcus aureus [15]): 8 µg/mL; MIC (Pseudomonas aeruginosa): > 256 µg/mL
4	64	16	8	> 256	CC[C@@H](C(=O)[C@@H](C)[C@@H](O)[C@H](C)[C@@H]1O[C@@H]([C@@H](CC)C(=O)OCCCC[P+](c2ccc(OC)cc2)(c2ccc(OC)cc2)c2ccc(OC)cc2)CC[C@@H]1C)[C@H]1O[C@]2(C=C[C@@H](O)[C@]3(CC[C@@](C)([C@H]4CC[C@](O)(CC)[C@H](C)O4)O3)O2)[C@H](C)C[C@@H]1C.[Br-]	730	1280	2240	1420	660	1120	670	1.5	0.9	0.5	0.8	1.7	0.9	0.5	0.3	selectivity ratio [11]: 0.5; selectivity ratio [12]: 1; MIC (Staphylococcus aureus [13]): 4 µg/mL; MIC (Staphylococcus aureus [15]): 4 µg/mL; MIC (Pseudomonas aeruginosa): > 256 µg/mL
–	–	–	–	–	COc1cccc2c1C(=O)c1c(O)c3c(c(O)c1C2=O)C[C@@](O)(C(=O)CO)C[C@@H]3O[C@H]1C[C@H](N)[C@H](O)[C@H](C)O1 [DOXORUBICIN]	–	–	–	830	630	–	2010	–	–	–	–	–	–	–	–	–

Structure (SMILES)	MIC (Staphylococcus aureus [14]) [µg/mL]	MIC (Staphylococcus aureus [16]) [µg/mL]	MIC [17] [µg/mL]	MIC [18] [µg/mL]	MIC (Escherichia coli) [µg/mL]	IC50 (SW480) [nM]	IC50 (SW-620) [nM]	IC50 (PC-3) [nM]	IC50 (MDA-MB-231) [nM]	IC50 (A549) [nM]	IC50 at 72 h [1] [nM]	IC50 at 72 h [2] [nM]	selectivity ratio [3]	selectivity ratio [4]	selectivity ratio [5]	selectivity ratio [6]	selectivity ratio [7]	selectivity ratio [8]	selectivity ratio [9]	selectivity ratio [10]	further results
O=C(O)c1cn(C2CC2)c2cc(N3CCNCC3)c(F)cc2c1=O [CIPROFLOXACIN]	0.25 (≈ 0.754 µM)	0.25 (≈ 0.754 µM)	0.125 (≈ 0.377 µM)	0.125 (≈ 0.377 µM)	0.007 (≈ 0.0211 µM)	–	–	–	–	–	–	–	–	–	–	–	–	–	–	–	–
